# Experimental data from PMC12073402, “A Selective MAP3K1 Inhibitor Facilitates Discovery of NPM1 as a Member of the Network” (Molecules, 2025).
# How the values were obtained:
# Assay in all cases: KiNativ kinome profiling in PANC-1 lysate
# Type in all cases: binding
# PRP4 = biological target: T1, PRP4 (Homo sapiens, UniProt Q13523); conditions: Lys2
# T1 construct: endogenous in cells; host or cells: PANC-1 cell lysate
# Outline: (§1)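 PANC-1 lysates were incubated with 5 μM inhibitor or DMSO, then labeled with a desthiobiotin-ATP acyl-phosphate probe that biotinylates conserved kinase lysines. Tryptic peptides were streptavidin-enriched and quantified by LC-MS/MS, reported as % change in MS signal from duplicate treated and duplicate control samples.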
# PCTAIRE1, PCTAIRE3 = conditions: 5 µM; Lys2; DLKPQNLLINER
# Outline: as §1
# JNK1, JNK2, JNK3 = conditions: 5 µM; Lys2; DLKPSNIVVK
# Outline: as §1
# CDK4 = biological target: T2, CDK4 (Homo sapiens, UniProt P11802); conditions: Lys2
# T2 construct: endogenous in cells; host or cells: PANC-1 cell lysate
# Outline: as §1
# MAP2K1, MAP2K2 = conditions: 5 µM
# Outline: as §1
# HER2/ErbB2 = biological target: T3, HER2/ErbB2 (Homo sapiens, UniProt P04626)
# T3 construct: we opted to conduct a kinome screen (KiNativ) in PANC-1 cell lysates; endogenous in cells; host or cells: PANC-1 cell lysate
# Outline: as §1
# MAP2K5 = biological target: T4, MAP2K5 (Homo sapiens, UniProt Q13163); conditions: Lys2
# T4 construct: endogenous in cells; host or cells: PANC-1 cell lysate
# Outline: as §1
# IKKb = biological target: T5, IKKb (Homo sapiens, UniProt O14920)
# T5 construct: we opted to conduct a kinome screen (KiNativ) in PANC-1 cell lysates; endogenous in cells; host or cells: PANC-1 cell lysate
# T5 sequence (O14920 1-756): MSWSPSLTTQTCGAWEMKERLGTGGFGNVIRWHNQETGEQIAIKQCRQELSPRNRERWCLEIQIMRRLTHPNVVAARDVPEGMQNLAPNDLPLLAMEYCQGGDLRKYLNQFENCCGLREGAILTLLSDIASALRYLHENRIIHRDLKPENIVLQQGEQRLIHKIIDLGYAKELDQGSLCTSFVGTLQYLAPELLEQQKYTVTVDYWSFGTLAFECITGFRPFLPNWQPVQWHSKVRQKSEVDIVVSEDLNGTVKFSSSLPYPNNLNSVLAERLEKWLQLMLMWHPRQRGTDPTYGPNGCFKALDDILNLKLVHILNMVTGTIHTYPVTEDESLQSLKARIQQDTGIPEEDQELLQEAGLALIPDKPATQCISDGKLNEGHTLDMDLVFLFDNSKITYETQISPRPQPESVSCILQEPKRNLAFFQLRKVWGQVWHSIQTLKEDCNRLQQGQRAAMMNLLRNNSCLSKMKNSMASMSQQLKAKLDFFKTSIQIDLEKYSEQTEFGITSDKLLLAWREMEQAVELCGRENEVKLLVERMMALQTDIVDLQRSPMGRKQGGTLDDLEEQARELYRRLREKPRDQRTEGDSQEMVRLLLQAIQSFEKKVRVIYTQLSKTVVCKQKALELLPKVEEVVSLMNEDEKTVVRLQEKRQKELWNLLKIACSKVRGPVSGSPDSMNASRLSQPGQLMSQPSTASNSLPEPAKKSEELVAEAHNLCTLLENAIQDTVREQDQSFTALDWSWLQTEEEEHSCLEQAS
# Outline: as §1
# NDR2 = biological target: T6, NDR2 (Homo sapiens, UniProt Q9Y2H1)
# T6 construct: endogenous in cells; host or cells: PANC-1 cell lysate
# Outline: as §1
# PHKg2 = biological target: T7, PHKg2 (Homo sapiens, UniProt P15735); conditions: Lys1
# T7 construct: endogenous in cells; host or cells: PANC-1 cell lysate
# Outline: as §1
# MST3, MST4, YSK1 = conditions: 5 µM; ATP Loop; LADFGVAGQLTDTQIKR
# Outline: as §1
# PIP5K3 = biological target: T8, PIP5K3 (Homo sapiens, UniProt Q9Y2I7); conditions: ATP
# T8 construct: endogenous in cells; host or cells: PANC-1 cell lysate
# Outline: as §1
# CDK2 = biological target: T9, CDK2 (Homo sapiens, UniProt P24941)
# T9 construct: endogenous in cells; host or cells: PANC-1 cell lysate
# Outline: as §1
# MAP4K3 = biological target: T10, MAP4K3 (Homo sapiens, UniProt Q8IVH8)
# T10 construct: endogenous in cells; host or cells: PANC-1 cell lysate
# Outline: as §1
# FAK = biological target: T11, FAK (Homo sapiens, UniProt Q05397)
# T11 construct: endogenous in cells; host or cells: PANC-1 lysate
# Outline: as §1
# MRCKb = biological target: T12, MRCKb (Homo sapiens, UniProt Q9Y5S2); conditions: Lys2
# T12 construct: endogenous in cells; host or cells: PANC-1
# Outline: as §1
# T6 sequence (Q9Y2H1 whole entry): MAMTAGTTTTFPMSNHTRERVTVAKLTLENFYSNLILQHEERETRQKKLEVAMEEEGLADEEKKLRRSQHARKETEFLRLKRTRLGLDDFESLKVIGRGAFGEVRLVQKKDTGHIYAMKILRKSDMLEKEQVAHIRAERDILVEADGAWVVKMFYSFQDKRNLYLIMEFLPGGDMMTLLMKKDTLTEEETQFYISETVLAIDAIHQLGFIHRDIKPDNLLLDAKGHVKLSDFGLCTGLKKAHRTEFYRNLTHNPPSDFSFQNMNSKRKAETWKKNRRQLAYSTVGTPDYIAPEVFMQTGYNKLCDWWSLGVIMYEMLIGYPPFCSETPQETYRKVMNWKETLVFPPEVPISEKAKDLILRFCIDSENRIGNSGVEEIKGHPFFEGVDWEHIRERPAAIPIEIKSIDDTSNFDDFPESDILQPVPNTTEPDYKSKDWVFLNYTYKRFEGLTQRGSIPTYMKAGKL
# T3 sequence (P04626 23-1255): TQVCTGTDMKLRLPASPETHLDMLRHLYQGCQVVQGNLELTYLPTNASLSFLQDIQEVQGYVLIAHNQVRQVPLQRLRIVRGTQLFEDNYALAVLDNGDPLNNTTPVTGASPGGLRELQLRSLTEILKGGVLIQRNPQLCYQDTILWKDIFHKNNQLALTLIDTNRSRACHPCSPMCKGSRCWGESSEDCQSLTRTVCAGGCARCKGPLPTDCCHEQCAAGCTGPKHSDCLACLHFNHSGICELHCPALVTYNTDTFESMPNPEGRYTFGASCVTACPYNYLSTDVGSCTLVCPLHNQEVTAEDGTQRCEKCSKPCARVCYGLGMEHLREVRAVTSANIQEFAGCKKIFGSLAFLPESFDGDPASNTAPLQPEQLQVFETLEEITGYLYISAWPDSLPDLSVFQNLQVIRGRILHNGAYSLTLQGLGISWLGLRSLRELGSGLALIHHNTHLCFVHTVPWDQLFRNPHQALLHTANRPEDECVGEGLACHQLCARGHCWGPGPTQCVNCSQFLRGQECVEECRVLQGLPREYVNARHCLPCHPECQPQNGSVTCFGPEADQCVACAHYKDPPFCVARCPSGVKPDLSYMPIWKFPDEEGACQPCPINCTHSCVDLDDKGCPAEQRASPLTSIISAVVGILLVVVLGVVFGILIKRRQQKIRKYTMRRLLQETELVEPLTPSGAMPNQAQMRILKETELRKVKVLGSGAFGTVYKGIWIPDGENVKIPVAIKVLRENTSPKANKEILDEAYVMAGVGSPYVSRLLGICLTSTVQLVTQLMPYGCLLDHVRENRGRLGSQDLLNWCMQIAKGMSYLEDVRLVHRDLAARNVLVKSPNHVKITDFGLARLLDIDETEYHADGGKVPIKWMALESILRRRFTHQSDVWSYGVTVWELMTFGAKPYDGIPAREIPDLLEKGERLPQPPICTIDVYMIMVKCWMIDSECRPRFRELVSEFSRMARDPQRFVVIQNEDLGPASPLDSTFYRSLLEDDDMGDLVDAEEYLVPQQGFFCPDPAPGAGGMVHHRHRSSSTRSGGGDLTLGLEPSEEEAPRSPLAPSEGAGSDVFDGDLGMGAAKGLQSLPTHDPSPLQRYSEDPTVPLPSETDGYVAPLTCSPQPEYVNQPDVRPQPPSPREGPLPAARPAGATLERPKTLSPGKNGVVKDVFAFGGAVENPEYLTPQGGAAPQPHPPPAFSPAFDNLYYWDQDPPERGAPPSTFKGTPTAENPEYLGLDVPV
# T11 sequence (Q05397 whole entry): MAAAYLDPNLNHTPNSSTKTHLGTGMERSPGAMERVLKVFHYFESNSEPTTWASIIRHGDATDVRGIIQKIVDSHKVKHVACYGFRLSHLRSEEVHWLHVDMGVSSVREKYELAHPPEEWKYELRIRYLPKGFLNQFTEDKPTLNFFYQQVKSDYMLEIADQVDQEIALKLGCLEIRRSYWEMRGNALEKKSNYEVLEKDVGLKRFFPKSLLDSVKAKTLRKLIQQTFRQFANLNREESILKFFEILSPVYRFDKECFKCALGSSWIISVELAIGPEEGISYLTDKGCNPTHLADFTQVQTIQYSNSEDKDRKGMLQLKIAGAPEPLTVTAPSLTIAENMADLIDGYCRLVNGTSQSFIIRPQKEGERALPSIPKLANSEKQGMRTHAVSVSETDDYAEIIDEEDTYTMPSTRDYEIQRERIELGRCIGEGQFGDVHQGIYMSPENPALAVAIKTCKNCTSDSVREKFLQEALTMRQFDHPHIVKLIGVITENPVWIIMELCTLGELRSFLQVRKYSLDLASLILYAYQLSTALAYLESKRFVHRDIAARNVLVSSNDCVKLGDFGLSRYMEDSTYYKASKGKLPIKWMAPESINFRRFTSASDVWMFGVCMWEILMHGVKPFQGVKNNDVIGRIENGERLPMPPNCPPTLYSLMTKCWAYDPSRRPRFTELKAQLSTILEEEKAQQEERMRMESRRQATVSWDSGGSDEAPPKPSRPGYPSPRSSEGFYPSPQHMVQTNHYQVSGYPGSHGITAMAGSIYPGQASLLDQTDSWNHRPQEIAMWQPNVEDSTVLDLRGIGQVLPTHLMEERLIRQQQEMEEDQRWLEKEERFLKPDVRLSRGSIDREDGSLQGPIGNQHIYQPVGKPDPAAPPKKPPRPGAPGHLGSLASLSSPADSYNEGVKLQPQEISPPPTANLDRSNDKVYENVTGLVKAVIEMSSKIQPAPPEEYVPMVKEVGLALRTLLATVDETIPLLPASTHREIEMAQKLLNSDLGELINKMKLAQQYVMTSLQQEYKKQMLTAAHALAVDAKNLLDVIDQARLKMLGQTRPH
# T10 sequence (Q8IVH8 whole entry): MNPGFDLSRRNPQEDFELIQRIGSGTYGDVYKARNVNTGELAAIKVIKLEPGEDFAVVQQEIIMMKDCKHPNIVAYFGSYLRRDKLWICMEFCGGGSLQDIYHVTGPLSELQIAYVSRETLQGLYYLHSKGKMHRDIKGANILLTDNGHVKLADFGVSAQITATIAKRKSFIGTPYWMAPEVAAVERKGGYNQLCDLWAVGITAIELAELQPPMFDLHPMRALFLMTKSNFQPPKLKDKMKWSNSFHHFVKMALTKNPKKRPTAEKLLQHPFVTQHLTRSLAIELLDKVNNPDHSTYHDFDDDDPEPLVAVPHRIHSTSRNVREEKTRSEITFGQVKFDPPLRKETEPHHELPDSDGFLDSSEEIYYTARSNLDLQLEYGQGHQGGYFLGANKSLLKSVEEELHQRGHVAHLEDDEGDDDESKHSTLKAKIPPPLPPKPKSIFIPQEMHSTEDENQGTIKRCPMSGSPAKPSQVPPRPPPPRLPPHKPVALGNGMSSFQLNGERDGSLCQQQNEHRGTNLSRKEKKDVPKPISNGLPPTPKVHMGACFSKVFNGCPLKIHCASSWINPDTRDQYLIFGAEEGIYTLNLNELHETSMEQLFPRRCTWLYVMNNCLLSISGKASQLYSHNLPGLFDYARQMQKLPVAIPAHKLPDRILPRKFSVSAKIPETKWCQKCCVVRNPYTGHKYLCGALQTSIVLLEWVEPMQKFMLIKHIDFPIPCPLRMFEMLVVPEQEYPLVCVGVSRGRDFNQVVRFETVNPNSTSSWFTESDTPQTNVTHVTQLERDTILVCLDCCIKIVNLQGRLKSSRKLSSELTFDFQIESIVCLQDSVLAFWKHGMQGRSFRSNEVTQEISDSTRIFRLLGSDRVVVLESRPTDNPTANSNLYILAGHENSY
# T7 sequence (P15735 whole entry): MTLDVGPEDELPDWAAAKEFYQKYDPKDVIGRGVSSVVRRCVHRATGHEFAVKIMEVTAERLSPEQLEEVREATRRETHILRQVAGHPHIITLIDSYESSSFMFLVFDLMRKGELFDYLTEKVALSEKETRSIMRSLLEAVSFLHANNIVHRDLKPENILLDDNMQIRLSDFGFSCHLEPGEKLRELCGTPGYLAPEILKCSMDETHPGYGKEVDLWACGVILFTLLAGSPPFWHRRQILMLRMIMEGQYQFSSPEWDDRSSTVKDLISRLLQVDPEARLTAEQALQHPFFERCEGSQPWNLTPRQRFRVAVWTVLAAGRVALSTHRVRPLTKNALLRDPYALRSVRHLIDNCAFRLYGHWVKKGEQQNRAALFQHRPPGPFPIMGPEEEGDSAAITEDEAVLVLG
# T2 sequence (P11802 whole entry): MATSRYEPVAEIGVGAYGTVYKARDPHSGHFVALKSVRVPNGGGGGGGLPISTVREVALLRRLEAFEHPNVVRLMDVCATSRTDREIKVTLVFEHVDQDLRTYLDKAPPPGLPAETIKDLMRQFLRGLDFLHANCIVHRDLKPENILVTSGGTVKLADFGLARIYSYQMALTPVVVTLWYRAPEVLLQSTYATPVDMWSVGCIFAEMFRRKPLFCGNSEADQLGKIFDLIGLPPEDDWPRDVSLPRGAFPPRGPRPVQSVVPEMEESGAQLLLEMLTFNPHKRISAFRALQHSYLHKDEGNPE
# T4 sequence (Q13163 whole entry): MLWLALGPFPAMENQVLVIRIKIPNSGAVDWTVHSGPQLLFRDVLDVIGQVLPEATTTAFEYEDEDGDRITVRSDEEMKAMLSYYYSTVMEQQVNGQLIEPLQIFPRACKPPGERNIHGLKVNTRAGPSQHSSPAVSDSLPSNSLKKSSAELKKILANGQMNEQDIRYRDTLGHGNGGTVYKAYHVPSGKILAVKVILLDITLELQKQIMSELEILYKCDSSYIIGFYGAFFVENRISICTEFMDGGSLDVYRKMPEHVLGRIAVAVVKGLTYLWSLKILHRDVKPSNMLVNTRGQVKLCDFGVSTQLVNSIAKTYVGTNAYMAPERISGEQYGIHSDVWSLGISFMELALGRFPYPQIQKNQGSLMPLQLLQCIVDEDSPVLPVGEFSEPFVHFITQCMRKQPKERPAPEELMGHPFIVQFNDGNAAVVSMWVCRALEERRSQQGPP
smiles,measurement,setting,value
"Cn1cc(-c2cnc3ccc(NC(=O)Nc4ccc(F)c(C(F)(F)F)c4)cc3n2)cn1 [51-106, 1-(4-Fluoro-3-(trifluoromethyl)phenyl)-3-(3-(1-methyl-1H-pyrazol-4-yl)quinoxalin-6-yl)urea]",inhibition at 5 µM,PRP4,≤ 0%
same,% Inhibition,"PCTAIRE1, PCTAIRE3",4.8%
same,% Inhibition,"JNK1, JNK2, JNK3",NB (NB = No Binding (≤ 0))
same,inhibition at 5 µM,CDK4,3.2%
same,% Inhibition,"MAP2K1, MAP2K2; Lys1, KLIHLEIKPAIR",NB (NB = No Binding (≤ 0))
same,% Inhibition,"MAP2K1, MAP2K2; Lys2, DVKPSNILVNSR",1.2%
same,inhibition at 5 µM,"HER2/ErbB2; ATP Loop, LLDIDETEYHADGGKVPIK",≤ 0%
same,inhibition at 5 µM,"HER2/ErbB2; Lys1, GIWIPDGENVKIPVAIKVLR",15.6%
same,inhibition at 5 µM,MAP2K5,3%
same,inhibition at 5 µM,"IKKb; Lys1, WHNQETGEQIAIKQCR",0.1%
same,inhibition at 5 µM,"IKKb; Lys2, DLKPENIVLQQGEQR",≤ 0%
same,inhibition of IKKβ (in words),"IKKb; 5 μM, PANC-1 lysate",not inhibited
same,inhibition at 5 µM,"NDR2; Lys1, DTGHIYAMKILR",≤ 0%
same,inhibition at 5 µM,"NDR2; Lys2, DIKPDNLLLDAK",7.6%
same,inhibition at 5 µM,PHKg2,≤ 0%
same,% Inhibition,"MST3, MST4, YSK1",NB (NB = No Binding (≤ 0))
same,inhibition at 5 µM,PIP5K3,≤ 0%
same,% Inhibition,"CDK2; 5 µM, Lys1, LTGEVVALKK",12%
same,inhibition at 5 µM,"CDK2; Lys1, LTGEVVALKK",12.3%
same,inhibition at 5 µM,"CDK2; Lys2, DLKPQNLLINTEGAIK",≤ 0%
same,inhibition at 5 µM,"MAP4K3; Lys1, NVNTGELAAIKVIK",4.7%
same,inhibition at 5 µM,"MAP4K3; Lys2, DIKGANILLTDNGHVK",≤ 0%
same,inhibition at 5 µM,"FAK; ATP Loop, YMEDSTYYKASK",22.5%
same,inhibition at 5 µM,"FAK; Lys1, CIGEGQFGDVHQGIYMSPENPALAVAIKTCK",2.8%
same,inhibition at 5 µM,MRCKb,≤ 0%
